In patent US10189786B2, “Antibacterial compounds” (Duke University, priority 2013, dated 2019):
Converted amounts (≈) assume the structure as drawn.

Experiments:
N. gonorrhoeae H041 = experiment: Disk diffusion assay, N. gonorrhoeae H041; format: cell-based; conditions: disc 6 mm; for zone of inhibition at 0.2 µg/disc / zone of inhibition at 2 µg/disc / zone of inhibition at 20 µg/disc: Neisseria gonorrhoeae, read-out: diameter of the growth inhibition, H041; for zone of inhibition at 0.2 µg/disc: H041, 0.2 μg per disc; for zone of inhibition at 2 µg/disc: H041, 2.0 μg per disc; for zone of inhibition at 20 µg/disc: H041, 20 μg per disc
Experimental: (§1) An assay was performed on two strains of Acinetobacter Baumannii: antibiotic susceptible strain (Sus. A.b. Isolate), and multidrug-resistant strains (MDR A.b. Isolate). […] Activity is measured as the diameter (in mm) of the growth inhibition.

[1] = tested on: N. gonorrhoeae 35/02 (drug-resistant strain); experiment: Disk diffusion assay, N. gonorrhoeae 35/02; format: cell-based; conditions: disc 6 mm; for zone of inhibition at 0.2 µg/disc / zone of inhibition at 2 µg/disc / zone of inhibition at 20 µg/disc: Neisseria gonorrhoeae, read-out: diameter of the growth inhibition, 35/02; for zone of inhibition at 0.2 µg/disc: 0.2 μg per disc
Experimental: as §1

P. aeruginosa PAO1 = experiment: MIC assay, P. aeruginosa PAO1; format: cell-based; conditions: for MIC: Pseudomonas aeruginosa, PAO1, P. aeruginosa PAO1
[2] = tested on: N. gonorrhoeae FA19 (a drug-sensitive strain); experiment: Disk diffusion assay, N. gonorrhoeae FA19; format: cell-based; conditions: disc 6 mm; for zone of inhibition at 0.2 µg/disc / zone of inhibition at 2 µg/disc / zone of inhibition at 20 µg/disc: Neisseria gonorrhoeae, read-out: diameter of the growth inhibition, FA19
Experimental: as §1

[3] = tested on: N. gonorrhoeae F89 (high-level cefixime and ceftriaxone resistance); experiment: Disk diffusion assay, N. gonorrhoeae F89; format: cell-based; conditions: disc 6 mm; for zone of inhibition at 0.2 µg/disc / zone of inhibition at 2 µg/disc / zone of inhibition at 20 µg/disc: Neisseria gonorrhoeae, read-out: diameter of the growth inhibition, F89
Experimental: as §1

E. coli W3110 = experiment: microbe, parasite or virus in culture; format: cell-based; conditions: wild-type E. coli W3110, 22 hours at 37° C., MTT; for MIC: Escherichia coli, W3110, 22 h
E. coli W3110PA = experiment: microbe, parasite or virus in culture; format: cell-based; conditions: E. coli with native lpxC replaced by that of P. aeruginosa; for MIC: Escherichia coli, W3110PA
[4] = tested on: F. novicida U112 (FNU112); experiment: microbe, parasite or virus in culture; format: cell-based; conditions: Francisella tularensis, read-out: MIC FNU112
E. coli W3110NG = experiment: MIC assay, E. coli W3110NG; format: cell-based; conditions: Escherichia coli
N. gonorrhoeae (FA35/02) [5] = experiment: MIC assay, N. gonorrhoeae 35/02; format: cell-based; conditions: drug-resistant strain; for MIC: Neisseria gonorrhoeae
Experimental: MICs are determined according to the NCCLS protocol using 96-well plates. Briefly, diluted bacterial cells (10^6 cells/mL) are added into each well of the 96-well plates containing LB medium with 5% DMSO and various concentrations of the compound of disclosure. After incubation of the plates for 22 hours at 37° C., [4,5-dimethylthiazol-2-yl]-2,5-diphenyltetrazolium bromide solution (MTT) is added (final concentration, 0.2 mg/mL) and incubated at 37° C. for another 3 hrs. MIC is determined as the lowest concentration of an antibiotic that prevented color change (yellow to purple).
The antibiotic activities of several exemplary compounds useful in the methods of the disclosure are evaluated by measurements of minimum inhibitory concentrations (MICs) using two N. gonorrhoeae strains: FA19 (a drug-sensitive strain) and 35/02 (drug-resistant strain.) FA19 is an isolate from uncomplicated infection and was lyophilized in 1962. […] The strain is being sequenced to elucidate the mechanisms involved in high-level chromosomally mediated resistance.

N. gonorrhoeae (FA35/02) [6] = conditions: description of the resistance of strain 35/02; cited from earlier work
[7] = 0.2 μg per disc, listed as 3 (Isomer B)

For `CC(CCc1ccc(-c2ccccc2)cc1)(C(=O)NO)C(C)(O)C(F)F` (single isomer, unassigned) [Example 3 Isomer B, 2-(2-(biphenyl-4-yl)ethyl)-4,4-difluoro-N,3-dihydroxy-2,3-dimethylbutanamide], the “diameter of the growth inhibition, H041” value (N. gonorrhoeae H041; [7]) was 8 mm, the “diameter of the growth inhibition, H041” value (N. gonorrhoeae H041; 2.0 μg per disc) was 10 mm and the “diameter of the growth inhibition, H041” value (N. gonorrhoeae H041; 20 μg per disc) was 20 mm. The “diameter of the growth inhibition, 35/02” value ([1]; 2.0 μg per disc) was 8 mm, the “diameter of the growth inhibition, 35/02” value ([1]; 20 μg per disc) was 19 mm and the “MIC P. aeruginosa PAO1” value (P. aeruginosa PAO1; P. aeruginosa PAO1, unit from b306, listed as 3 Isomer B) was 25 µg/mL (≈ 68.8 µM). For the same molecule, the “diameter of the growth inhibition, FA19” value [2, 7] was 0 mm, the “diameter of the growth inhibition, FA19” value ([2]; 2.0 μg per disc) was 15 mm and the “diameter of the growth inhibition, FA19” value ([2]; 20 μg per disc) was 23 mm. The “diameter of the growth inhibition, F89” value [3, 7] was 10 mm, the “diameter of the growth inhibition, F89” value ([3]; 2.0 μg per disc) was 20 mm and the “diameter of the growth inhibition, F89” value ([3]; 20 μg per disc) was 27 mm. The “MIC E. coli W3110” value (E. coli W3110) was over 50 µg/mL and the “MIC E. coli W3110PA” value (E. coli W3110PA; unit from b306, listed as 3 Isomer B) was 25 µg/mL (≈ 68.8 µM).

Work on `C[C@@](O)(C(F)F)[C@H](NCc1ccc(-c2ccccc2)cc1)C(=O)NO` [Example 5, (2S,3S)-2-(biphenyl-4-ylmethylamino)-4,4-difluoro-N,3-dihydroxy-3-methylbutanamide] yielded a zone of inhibition at 0.2 µg/disc (N. gonorrhoeae H041) of 7 mm, a zone of inhibition at 2 µg/disc (N. gonorrhoeae H041) of 17 mm and a zone of inhibition at 20 µg/disc (N. gonorrhoeae H041) of 25 mm. It also gave a zone of inhibition at 0.2 µg/disc [1] of 0 mm, a zone of inhibition at 2 µg/disc ([1]; 2.0 μg per disc) of 16 mm and a zone of inhibition at 20 µg/disc ([1]; 20 μg per disc) of 24 mm. It also gave an MIC (P. aeruginosa PAO1) of 3.1 µg/mL (≈ 8.85 µM), a zone of inhibition at 0.2 µg/disc ([2]; 0.2 μg per disc) of 0 mm and a zone of inhibition at 2 µg/disc ([2]; 2.0 μg per disc) of 25 mm. For the same molecule, the zone of inhibition at 20 µg/disc ([2]; 20 μg per disc) was 29 mm, the zone of inhibition at 0.2 µg/disc ([3]; 0.2 μg per disc) was 8 mm and the zone of inhibition at 2 µg/disc ([3]; 2.0 μg per disc) was 27 mm. It also gave a zone of inhibition at 20 µg/disc ([3]; 20 μg per disc) of 36 mm, an MIC (E. coli W3110) of 25 µg/mL (≈ 71.4 µM) and an MIC (E. coli W3110PA) of 3.1 µg/mL (≈ 8.85 µM).

For `C[C@@H](O)[C@H](NCc1ccc(-c2ccccc2)cc1)C(=O)NO` [Example 9, (2S,3R)-2-(biphenyl-4-ylmethylamino)-N,3-dihydroxybutanamide], the MIC (P. aeruginosa PAO1) was 5.4 µg/mL (≈ 18 µM), the MIC [4] was over 5 µg/mL and the MIC (E. coli W3110) was 25 µg/mL (≈ 83.2 µM). The MIC (E. coli W3110PA) was 4.8 µg/mL (≈ 16 µM) and the MIC (E. coli W3110NG) was over 50 µg/mL.

`CC(NCCCc1ccc(-c2ccccc2)cc1)(C(=O)NO)C(C)(O)C(F)F` (stereo not drawn) [Example 10, 2-(3-(biphenyl-4-yl)propylamino)-4,4-difluoro-N,3-dihydroxy-2,3-dimethylbutanamide] showed an MIC (N. gonorrhoeae (FA35/02) [5]) of 0.06 µg/mL (≈ 0.153 µM), a zone of inhibition at 0.2 µg/disc (N. gonorrhoeae H041) of 13 mm and a zone of inhibition at 2 µg/disc (N. gonorrhoeae H041) of 20 mm. The zone of inhibition at 20 µg/disc (N. gonorrhoeae H041) was 27 mm, the zone of inhibition at 0.2 µg/disc [1] was 15 mm and the zone of inhibition at 2 µg/disc ([1]; 2.0 μg per disc) was 20 mm. For the same molecule, the zone of inhibition at 20 µg/disc ([1]; 20 μg per disc) was 27 mm, the MIC (P. aeruginosa PAO1) was 2.5 µg/mL (≈ 6.37 µM) and the zone of inhibition at 0.2 µg/disc ([2]; 0.2 μg per disc) was 17 mm. For the same molecule, the zone of inhibition at 2 µg/disc ([2]; 2.0 μg per disc) was 25 to 27 mm, the zone of inhibition at 20 µg/disc ([2]; 20 μg per disc) was 30 mm and the zone of inhibition at 0.2 µg/disc ([3]; 0.2 μg per disc) was 20 mm. The zone of inhibition at 2 µg/disc ([3]; 2.0 μg per disc) was 28 mm, the zone of inhibition at 20 µg/disc ([3]; 20 μg per disc) was 35 mm and the MIC (E. coli W3110) was 61.2 µg/mL (≈ 156 µM).

For `C[C@@](O)(C(F)F)[C@H](NCCCc1ccc(-c2ccccc2)cc1)C(=O)NO` [Example 11, (2S,3S)-2-(3-(biphenyl-4-yl)propylamino)-4,4-difluoro-N,3-dihydroxy-3-methylbutanamide], the MIC (N. gonorrhoeae (FA35/02) [5]) was 0.03 to 0.06 µg/mL (≈ 0.0793 to 0.159 µM), the “MIC N. gonorrhoeae (FA35/02)” value (N. gonorrhoeae (FA35/02) [5]) was 0.03 µg/mL (≈ 0.0793 µM) and the zone of inhibition at 0.2 µg/disc (N. gonorrhoeae H041) was 11 mm. For the same molecule, the zone of inhibition at 2 µg/disc (N. gonorrhoeae H041) was 20 mm, the zone of inhibition at 20 µg/disc (N. gonorrhoeae H041) was 27 mm and the zone of inhibition at 0.2 µg/disc [1] was 14 mm. For the same molecule, the zone of inhibition at 2 µg/disc ([1]; 2.0 μg per disc) was 23 mm, the zone of inhibition at 20 µg/disc ([1]; 20 μg per disc) was 26 mm and the MIC (P. aeruginosa PAO1) was 2.5 µg/mL (≈ 6.61 µM). It also gave a zone of inhibition at 0.2 µg/disc ([2]; 0.2 μg per disc) of 18 mm, a zone of inhibition at 2 µg/disc ([2]; 2.0 μg per disc) of 25 mm and a zone of inhibition at 20 µg/disc ([2]; 20 μg per disc) of 30 mm. The zone of inhibition at 0.2 µg/disc ([3]; 0.2 μg per disc) was 19 mm, the zone of inhibition at 2 µg/disc ([3]; 2.0 μg per disc) was 26 mm and the zone of inhibition at 20 µg/disc ([3]; 20 μg per disc) was 33 mm. The MIC (E. coli W3110) was 1.25 µg/mL (≈ 3.3 µM) and the MIC (E. coli W3110PA) was 1.25 µg/mL (≈ 3.3 µM).

Work on `COc1ccc(-c2ccn(CCC(C)(C(=O)NO)S(C)(=O)=O)c(=O)c2)cc1` (stereo not drawn) [Example 13, N-hydroxy-4-(4-(4-methoxyphenyl)-2-oxopyridin-1 (2H)-yl)-2-methyl-2-(methylsulfonyl)butanamide] yielded an MIC (P. aeruginosa PAO1) of under 0.78 µg/mL, an MIC [4] of 1.25 µg/mL (≈ 3.17 µM) and an MIC (E. coli W3110) of under 0.78 µg/mL. The MIC (E. coli W3110PA) was under 0.78 µg/mL and the MIC (E. coli W3110NG) was 1.25 µg/mL (≈ 3.17 µM).

`C[C@@](O)(C(F)F)[C@H](NC(=O)CCc1ccc(-c2ccccc2)cc1)C(=O)NO` [Example 14, (2S,3S)-2-(3-(biphenyl-4-yl)propanamido)-4,4-difluoro-N,3-dihydroxy-3-methylbutanamide] gave an MIC (N. gonorrhoeae (FA35/02) [5]) of 0.25 µg/mL (≈ 0.637 µM), a zone of inhibition at 0.2 µg/disc (N. gonorrhoeae H041) of 7 mm and a zone of inhibition at 2 µg/disc (N. gonorrhoeae H041) of 20 mm. For the same molecule, the zone of inhibition at 20 µg/disc (N. gonorrhoeae H041) was 26 mm, the zone of inhibition at 0.2 µg/disc [1] was 14 mm and the zone of inhibition at 2 µg/disc ([1]; 2.0 μg per disc) was 22 mm. For the same molecule, the zone of inhibition at 20 µg/disc ([1]; 20 μg per disc) was 28 mm, the MIC [4] was 12.5 µg/mL (≈ 31.9 µM) and the zone of inhibition at 0.2 µg/disc ([2]; 0.2 μg per disc) was 18 mm. It also gave a zone of inhibition at 2 µg/disc ([2]; 2.0 μg per disc) of 27 mm, a zone of inhibition at 20 µg/disc ([2]; 20 μg per disc) of 30 mm and a zone of inhibition at 0.2 µg/disc ([3]; 0.2 μg per disc) of 18 mm. The zone of inhibition at 2 µg/disc ([3]; 2.0 μg per disc) was 27 mm, the zone of inhibition at 20 µg/disc ([3]; 20 μg per disc) was 34 mm and the MIC (E. coli W3110) was 6.25 µg/mL (≈ 15.9 µM). For the same molecule, the MIC (E. coli W3110PA) was 12.5 µg/mL (≈ 31.9 µM).

`CC(CCc1ccc(-c2ccccc2)cc1)(C(=O)NO)S(C)(=O)=O` (stereo not drawn) [Example 133] gave an MIC (P. aeruginosa PAO1) of 0.39 µg/mL (≈ 1.12 µM), an MIC [4] of 3.13 µg/mL (≈ 9.01 µM) and an MIC (E. coli W3110) of 3.13 µg/mL (≈ 9.01 µM). It also gave an MIC (E. coli W3110PA) of 0.38 µg/mL (≈ 1.09 µM).

In the case of `CO/N=C(\C(=O)N[C@@H]1C(=O)N2C(C(=O)O)=C(CSc3nc(=O)c(=O)[nH]n3C)CS[C@H]12)c1csc(N)n1` [ceftriaxone], the “MIC of reference antibiotics against N. gonorrhoeae 35/02” value (N. gonorrhoeae (FA35/02) [6]) is listed as 0.12 µg/mL.

For penicillin, the “MIC of reference antibiotics against N. gonorrhoeae 35/02” value (N. gonorrhoeae (FA35/02) [6]) is listed as 6 µg/mL.
